{"source": "paper PMC5054527", "about": "“Mechanism of high affinity inhibition of the human urate transporter URAT1” (Scientific Reports, 2016)", "assay_in_all_cases": "URAT1 uric acid transport activity assay", "assay_type_in_all_cases": "cell-based, human/rat", "key": {"[1]": {"target": "T1, h-r TM1 chimera (rURAT1 residues 1–99 and hURAT residues 100–553) (UniProt Q3ZAV1+Q96S37)", "T1 construct": "a chimera consisting of rURAT1 residues 1–99 and hURAT residues 100–553 (h-r TM1); expressed in transfected cells; host or cells: HEK-293T", "T1 sequence (Q3ZAV1 1-99, change not shown)": "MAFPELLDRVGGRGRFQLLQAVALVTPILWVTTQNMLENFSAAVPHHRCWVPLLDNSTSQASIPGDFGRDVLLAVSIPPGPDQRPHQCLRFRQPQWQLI", "T1 sequence (Q96S37 100-553, change not shown)": "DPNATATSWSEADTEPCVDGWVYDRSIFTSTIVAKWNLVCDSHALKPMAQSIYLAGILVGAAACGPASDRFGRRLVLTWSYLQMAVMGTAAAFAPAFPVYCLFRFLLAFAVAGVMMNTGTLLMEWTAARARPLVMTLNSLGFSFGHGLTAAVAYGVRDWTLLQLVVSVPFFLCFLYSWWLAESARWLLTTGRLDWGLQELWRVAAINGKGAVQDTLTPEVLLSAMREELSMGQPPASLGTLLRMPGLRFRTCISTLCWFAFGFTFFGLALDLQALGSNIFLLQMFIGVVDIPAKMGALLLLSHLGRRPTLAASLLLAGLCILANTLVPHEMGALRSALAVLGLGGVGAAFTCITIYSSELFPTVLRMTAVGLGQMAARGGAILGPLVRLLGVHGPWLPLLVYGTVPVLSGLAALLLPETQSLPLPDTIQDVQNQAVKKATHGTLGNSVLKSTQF"}, "[2]": {"target": "T2, h-r TM11 URAT1 chimera (Homo sapiens, UniProt Q96S37, I481M/M474V)", "T2 construct": "expressed in transfected cells; host or cells: HEK-293T", "T2 sequence (Q96S37 whole entry M474V/I481M)": "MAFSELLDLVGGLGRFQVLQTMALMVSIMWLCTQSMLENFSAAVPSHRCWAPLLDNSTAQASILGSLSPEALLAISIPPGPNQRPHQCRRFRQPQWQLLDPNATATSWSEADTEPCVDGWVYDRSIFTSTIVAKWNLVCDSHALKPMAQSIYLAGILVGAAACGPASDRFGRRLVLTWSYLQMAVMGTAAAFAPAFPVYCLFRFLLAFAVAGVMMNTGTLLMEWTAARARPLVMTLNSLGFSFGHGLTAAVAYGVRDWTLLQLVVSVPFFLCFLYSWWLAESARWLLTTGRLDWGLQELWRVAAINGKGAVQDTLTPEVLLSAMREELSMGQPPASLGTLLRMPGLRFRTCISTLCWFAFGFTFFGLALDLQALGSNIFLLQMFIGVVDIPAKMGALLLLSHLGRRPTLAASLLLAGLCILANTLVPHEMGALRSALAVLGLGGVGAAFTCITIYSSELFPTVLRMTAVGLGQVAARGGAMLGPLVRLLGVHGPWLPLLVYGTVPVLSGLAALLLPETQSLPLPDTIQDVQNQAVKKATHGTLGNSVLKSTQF"}, "[3]": {"target": "T3, h-r TM7 URAT1 chimera (Homo sapiens, UniProt Q96S37, C351F/F365Y/T354M)", "T3 construct": "expressed in transfected cells; host or cells: HEK-293T", "T3 sequence (Q96S37 whole entry C351F/T354M/F365Y)": "as the sequence (Q96S37 whole entry M474V/I481M) above, with C351F, T354M, F365Y, V474M, M481I counted along it"}, "[4]": {"target": "T4, h-r TM9-C URAT1 chimera (Homo sapiens, UniProt Q96S37, A432I/A436S/H428R/T424I)", "T4 construct": "expressed in transfected cells; host or cells: HEK-293T", "T4 sequence (Q96S37 whole entry T424I/H428R/A432I/A436S)": "as the sequence (Q96S37 whole entry M474V/I481M) above, with T424I, H428R, A432I, A436S, V474M, M481I counted along it", "settings": "HEPES pH 7.3, 100 μM 14C-uric acid"}}}
{"molecule": "O=C1C(CC[S+]([O-])c2ccccc2)C(=O)N(c2ccccc2)N1c1ccccc1", "note": "(stereo not shown) [sulfinpyrazone]", "values": [{"measurement": "fold reduced affinity of h-r TM1 compared to hURAT1", "setting": "[1]; from IC50 values", "value": 3, "unit": "fold"}, {"measurement": "IC50", "setting": "[1]; h-r TM1, HEPES pH 7.3, 100 μM 14C-uric acid", "value": "93 ± 17", "unit": "µM"}, {"measurement": "fold reduced affinity of h-r TM11 compared to hURAT1", "setting": "[2]; from IC50 values", "value": 3, "unit": "fold"}, {"measurement": "IC50", "setting": "[2]; h-r TM11, HEPES pH 7.3, 100 μM 14C-uric acid", "value": "100 ± 15", "unit": "µM"}, {"measurement": "fold reduced affinity of h-r TM7 compared to hURAT1", "setting": "[3]; from IC50 values", "value": 8, "unit": "fold"}, {"measurement": "IC50", "setting": "[3]; h-r TM7, HEPES pH 7.3, 100 μM 14C-uric acid", "value": "254 ± 47", "unit": "µM"}, {"measurement": "IC50", "setting": "[4]", "value": "38 ± 11", "unit": "µM"}]}
